The source of these data is patent US9096650B2, “Cyclic oligopeptides for binding to a target ligand” (LEXCICON LIMITED, priority 2006, dated 2015).

[ ]: non-standard residue; d: D form. Gly(decyl) = CCCCCCCCCC[C@H](N)C(=O)O

In experiment [1] the test system is J774A.1 cells (a macrophage cell line). Kind of experiment: Suppression of LPS-stimulated TNF secretion by cyclic analogues of Copaxone (Example 6). The class given is cell-based. The following applies: for TNF concentration: peptide 12.5 ug/ml as cyclodextrin complex, LPS 0.1 ug/ml, medium + LPS 637.6. The protocol:
• 1. Two cyclic oligopeptides were prepared with the following structures: cyclo(-A-K-Σ-Y-E-K-A-Σ-E-Y-) cyclo(-A-K-Σ-E-Y-K-A-Σ-Y-E-) • All amino acids are in the L form unless indicated otherwise. • All amino acids are linked by peptide bonds. • A, K, Y and E represent the epitope-forming amino acids and Σ represents the associating functional group borne on the associating amino acid wherein the associating amino acid is an L-alpha aminocarboxylic acid and the associating functional group is a side-chain residue consisting of a straight aliphatic chain containing ten carbon atoms. • The cyclic oligopeptides were prepared as solutions in hexafluoro-isopropanol (HFIP) at a concentration of 10 mg/ml, then mixed with equal volumes of HFIP solution containing beta-hydroxypropyl cyclodextrin at a concentration of 50 mg/ml. The organic solutions were then dried down under nitrogen, and the peptide/cyclodextrin complex redissolved in distilled water to give a final concentration of cyclic oligopeptide of 1 mg/ml. • 2. J774A.1 cells (a macrophage cell line) were plated out in all the wells of a 24-well cluster plate at a seeding density of 3×10^5 cells/ml/well (1 ml RPMI 1640 culture medium per well), and incubated overnight at 37° C. in 5% CO2/air. • 3. The following day, the solutions from step 1 were administered to wells containing cells in step 2, to give three wells each with a final concentration of 12.5 ug/ml of peptide. Additional wells containing cyclodextrin alone at 62.5 ug/ml were also prepared. The remaining wells were left untreated. The plate was incubated for a further four hours at 37 degC. • 4. Lipopolysaccharide (from E. coli strain 0111 B4) was added to the wells receiving the cyclic oligopeptide solution, as well as three of the wells receiving no peptide. The final concentration of lipopolysaccharide was 0.1 ug/ml. • 5. The plate was incubated overnight, and the following day the supernatants were assayed for TNF using a commercial ELISA kit.

Experiment [2] shares this test system. The class given is cell-based. The note with it: peptide 12.5 ug/ml; CTB 10 ug/ml; CTB alone 690.8, medium control 67.5.
Another experiment addresses thrombin (Homo sapiens, UniProt P00734). As to the kind of experiment: Inhibition of enzyme activity of thrombin, fluorogenic substrate (Example 7). The format is biochemical. The procedure: 1. Cyclic oligopeptides of the following structures were synthesised as previously described, and prepared in complexed form with cyclodextrin at concentration of 1 mg/ml on Hanks Balanced Salts Solution using the procedure outlined in example 6. (i) cyclo(-R-E-Σ-S-R-E-R-Σ-S-E-) (ii) cyclo(-A-K-ΣE-Y-K-A-ΣY-E-) (iii) cyclo(-dF-R-C-S-dF-R-C-S-) (iv) cyclo(-dF-S-C-R-dF-S-C-R-)
2. In wells of a […] microplate, 20 ul of thrombin solution (0.01 mg/ml) were dispensed, and mixed with 60 ul of cyclic oligopeptide solution
3. 20 ul of the substrate boc-beta-benzyl-Asp-Pro-Arg-7-amido-4-methylcoumarin hydrochloride (0.01 mg/ml) was added to each well, and the time course of generation of […] was measured.

Experiment [3] concerns J774A.1 cells (a macrophage cell line). As to the kind of experiment: Suppression of LPS-stimulated TNF secretion by cyclic oligopeptides containing two different epitopes (Example 8). The format is cell-based. The note with it: LPS 0.1 ug/ml. The procedure: • 1. Two cyclic oligopeptides were prepared with the following structures: (i) cyclo(-dF-S-Σ-Q-dL-S-Σ-R-) • and (ii) cyclo(-dF-S-Σ-L-dQ-S-Σ-R) • All amino acids are in the L form unless indicated otherwise. • All amino acids are linked by peptide bonds. wherein Q, L, S, R and F represent the epitope-forming amino acids and Σ represents the associating functional group borne on the associating amino acid wherein the associating amino acid is an L-alpha aminocarboxylic acid and the associating functional group is a side-chain residue consisting of a straight aliphatic chain containing ten carbon atoms.
These cyclic oligopeptides were prepared as solutions in transcutol/cyclodextrin, as described in example 4, to give a final concentration of peptide of 1 mg/ml, and cyclodextrin at 20 mg/ml. • 2. J774A.1 cells (a macrophage cell line) were plated out in all the wells of three 24-well cluster plates at a seeding density of 3×10^5 cells/ml/well (1 ml RPMI 1640 culture medium per well), and incubated overnight at 37° C. in 5% CO2/air. • 3. The following day, the solutions from step 1 were administered to wells containing cells in step 2, to give three wells each with a final concentration of 50, 25, 12.5, 6.25 or 3.125 ug/ml of cyclic oligopeptide. Additional wells containing cyclodextrin at 1, 0.5, 0.25, 0.125 and 0.0625 mg/ml were also prepared. The remaining wells were left untreated. The plate was incubated for a further four hours at 37 degC. • 4. Lipopolysaccharide (from E. coli strain 0111 B4) was added to the wells receiving the octapeptide solution, as well as three of the wells receiving no peptide. The final concentration of lipopolysaccharide was 0.1 ug/ml. • 5. The plate was incubated overnight, and the following day the supernatants were assayed for TNF using a commercial ELISA kit.

Take “cyclo(-A-K-Σ-E-Y-K-A-Σ-Y-E-) (cyclo(AK[Gly(decyl)]EYKA[Gly(decyl)]YE); SMILES CCCCCCCCCC[C@@H]1NC(=O)[C@H](C)NC(=O)[C@H](CCCCN)NC(=O)[C@H](Cc2ccc(O)cc2)NC(=O)[C@H](CCC(=O)O)NC(=O)[C@H](CCCCCCCCCC)NC(=O)[C@H](CCCCN)NC(=O)[C@H](C)NC(=O)[C@H](CCC(=O)O)NC(=O)[C@H](Cc2ccc(O)cc2)NC1=O) [cyclo(-A-K-Σ-E-Y-K-A-Σ-Y-E), cyclic analogue of Copaxone; Σ = L-alpha aminocarboxylic acid with straight C10 side chain]”: the TNF concentration in experiment [1] came out at 928.8 pg/mL.

Consider “cyclo(-A-K-Σ-Y-E-K-A-Σ-E-Y-) [cyclo(-A-K-Σ-Y-E-K-A-Σ-E-Y)]”, for which, in experiment [1] (in words), the “effect on TNF secretion by macrophages compared with Copaxone” value was “displays the same effect on TNF secretion by macrophages”. The TNF concentration in experiment [1] was 486.9 pg/mL.

As to cyclo(-DF-R-Σ4-S-DF-R-Σ4-S-), the “Concentration of TNF” value in experiment [2] stood at 664.4 pg/mL.

With cyclo(-DF-R-Σ10-S-DF-R-Σ10-S-), the “Concentration of TNF” value in experiment [2] is 268.5 pg/mL.

In the case of cyclo(-DF-S-Σ4-R-DF-S-Σ4-R-), the “Concentration of TNF” value in experiment [2] worked out at 621.1 pg/mL.

On to cyclo(-DF-S-Σ10-R-DF-S-Σ10-R-), for which the “Concentration of TNF” value in experiment [2] was 85.7 pg/mL.

For “cyclo(-dF-S-Σ-L-dQ-S-Σ-R) [Example 8 (ii)]”, the “Thrombin proteolytic activity (Fluorescence Units - Arbitrary Units)” value on thrombin (time 2.0 minutes, enzyme alone 770.9, lower = more inhibition) was 410.8 Arbitrary Units; on thrombin (time 5.0 minutes, enzyme alone 1821.1), 816.4 Arbitrary Units; on thrombin (time 10.0 minutes, enzyme alone 2163.5), 1189.4 Arbitrary Units; on thrombin (time 15.0 minutes, enzyme alone 2253.2), 1398.6 Arbitrary Units; at thrombin (time 20.0 minutes, enzyme alone 2345.8), 1592.1 Arbitrary Units; at thrombin (time 25.0 minutes, enzyme alone 2359.0), 1673.2 Arbitrary Units. Besides, the TNF concentration was found to be 2648 ± 43 pg/mL in experiment [3] (peptide 3.125 ug/ml, 2856 = maximum detectable limit); 2325 ± 67 pg/mL in experiment [3] (peptide 6.25 ug/ml); 1748 ± 20 pg/mL in experiment [3] (peptide 12.5 ug/ml); 1437 ± 85 pg/mL in experiment [3] (peptide 25 ug/ml); 1081 ± 142 pg/mL in experiment [3] (peptide 50 ug/ml).
